From patent US12265087B2, “Olfactory receptor as microglia marker and use thereof” (DAEGU GYEONGBUK INSTITUTE OF SCIENCE AND TECHNOLOGY, priority 2019, dated 2025)

Tests used:
primary microglia [1] = assay: ROS / superoxide generation in primary microglia; type: cell-based, mouse; conditions: for ROS generation after 2-PF: inhibitor pretreatment, then 2-PF; for ROS generated with 2-PF co-treatment: Sup MOI 5 + 500 μM 2-PF, 2-EF 0, 100, 300, 500 μM
Method: Superoxide concentrations were calculated by measuring the degree ofcytochrome c reduction using a VersaMax microplate reader (Babior et al., 1973). Microglia were cultured in a 96 well plate at a concentration of 1.0×10^5 cells/well, and the microglia were activated by a 10 μM ATP solution containing 2-PF and cytochrome c, or a solution in which Sup is mixed with cytochalasin B (5 μM; #C66762; Sigma Aldrich). The concentration of ROS was measured through a change in light absorption every minute for 25 minutes at 550 nm.
ROS levels were measured using 2′,7′-dichlorodihydrofluorescein diacetate (DCF-DA, #D6883; Sigma Aldrich) by a previously described method with minor modifications (Bae et al., 2001). More specifically, primary microglia were seeded in 24-well plates (5.0×10^5 cells/well) for 24 hours, and then treated with 10 μM DCF-DA at 37° C. for 30 minutes. One plate was treated with 2-PF, and the other one was not. The cells in each well were measured using a flow cytometer (FACS Accuri™ C6; BD Biosciences). MFI was measured as described above.

Olfr111 = assay: Luciferase assay in Hana3A cells transfected with Olfr111; type: cell-based, mouse; conditions: for binding to Olfr1111: furan derivatives; for reactivity with Olfr111 (relative luciferase activity): Hana3A cells
Method: (§1) A Dual-Glo luciferase assay system (#E2940; Promega) was used for OR ligand screening. More specifically, Hana3A cells were seeded in white polystyrene 96-well plates (#353296; BD Biosciences) one day before transfection. pCRELuc (1 μg; #219076; Agilent Technologies), pRL-SV40 (1 μg; #E2231; Promega), RTP1S (1 μg), and OR (6 μg; or Mock) vectors were transfected for 24 hours in each plate. Analysis was performed using Lipofectamine 2000 (#11668-019; Thermo Fisher Scientific) according to the manufacturer's protocols. Transfected cells were stimulated at 37° C. for 4 hours with various concentrations of diluted odorants in a CD293 medium (#11913-019; Thermo Fisher Scientific). The activity of luciferase was normalized to that of Renilla luciferase. Luminescence was measured using a SpectraMax L microplate reader (Molecular Devices).

Olfr110 = molecular target: T1, Olfr110 (Mus musculus, UniProt A2RT31); assay: Luciferase assay in Hana3A cells transfected with Olfr110; type: cell-based; conditions: for binding to Olfr110: furan derivatives; for reactivity with Olfr110 (relative luciferase activity): Hana3A cells
T1 construct: Full-length odorant receptor genes from mouse and human genomic DNAs were amplified using appropriate primers; Lucy (N); Flag (N); Rho (N); expressed in transfected cells; host or cells: Hana3A cells, co-transfected with RTP1S, pCRELuc and pRL-SV40
T1 sequence (A2RT31 1-317): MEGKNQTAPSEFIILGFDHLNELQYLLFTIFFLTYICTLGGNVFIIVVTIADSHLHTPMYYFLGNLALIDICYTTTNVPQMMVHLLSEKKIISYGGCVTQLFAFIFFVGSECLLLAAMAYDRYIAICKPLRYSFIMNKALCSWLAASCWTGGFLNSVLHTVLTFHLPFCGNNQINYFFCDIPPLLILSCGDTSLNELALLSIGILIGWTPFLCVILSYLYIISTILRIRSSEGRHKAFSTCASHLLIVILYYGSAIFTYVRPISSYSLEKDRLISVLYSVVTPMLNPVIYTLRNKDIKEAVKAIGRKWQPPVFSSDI
Method: as §1

primary microglia [2] = assay: Western blotting of phosphorylated signaling proteins in primary microglia; type: cell-based, mouse; conditions: inhibitor pre-cultivation, then 2-PF
Method: Cells and tissue were prepared using the T-PER® reagent (#78510; Thermo Fisher Scientific) containing protease inhibitors (#04-693-116-001; Roche Molecular Diagnostics) and DMSF (Sigma-Aldrich), and then lysed using a MagNA lyser (Roche Molecular Diagnostics). A total protein extract was quantified by the Bradford assay. The samples were dissolved in 7.5% SDS-PAGE or 4-20% gradient mini-PROTEIN TGX Precast Gels (#456-1064; Bio-Rad Laboratories), and then blotted on nitrocellulose membranes (#10600002; GE Healthcare). Afterward, the membranes were blocked for 1 hour in 5% non-fat dry milk and TBST, 0.1% TWEEN® 20 (#P9416; Sigma-Aldrich), and Tris-buffered saline, and then incubated with primary antibodies at 4° C. overnight. The antibodies were as follows: Olfr110 (36 kDa; 1:1,000; #ab177327; Abcam), anti-rhodopsin (39 kDa; 1:1,000; #MABN15; Millipore), CREB (43 kDa; 1:1,000; #9197; Cell Signaling Technology), phospho-CREB (43 kDa; 1:1,000; #9198; Cell Signaling Technology), ERK (44 kDa; 1:1,000; #sc094; Santa Cruz), phospho-ERK (42, 44 kDa; 1:1,000; #sc-7383; Santa Cruz), phospho-Akt (60 kDa; 1:500; sc-293125; Santa Cruz), phospho-JNK (46, 54 kDa; 1:500; sc-6254; Santa Cruz), phosphor-p38 (38 kDa; 1:1,000; sc-7973; Santa Cruz), and beta-Actin (45 kDa; 1:10,000; #4967; Cell Signaling Technology). In addition, as isotype-matched horseradish peroxidase-conjugated secondary antibodies, anti-rabbit IgG (#711-035-152; Jackson ImmunoResearch) diluted 1:100,000, and anti-mouse IgG (#715-035-150; Jackson ImmunoResearch) diluted 1:40,000 in TBST were used at room temperature for 2 hours. Immunoreactive protein bands were obtained using SuperSignal™ West Pico Chemiluminescent Substrate (#34080; Thermo Fisher Scientific).

primary microglia [3] = assay: Cytokine ELISA of primary microglia; type: cell-based, mouse; conditions: inhibitor pretreatment, then 2-PF
Method: The levels of expression of cytokines Tnf, i16 and I11b secreted from microglia were measured according to the manufacturer's protocols. More specifically, the levels were measured by ELISA 24 hours after treatment with 2-PF or a cell supernatant. The ELISA kit was purchased from BD Biosciences (#DY410 for Tnf; #DY406 for I16; #DY401 for I11b).

[4] = tested on: Olfr920, Olfr1417 and Olfr99; conditions: also react with MOCK

O=C1OC2(c3ccccc31)c1ccc(O)c(O)c1Oc1c2ccc(O)c1O [gallein, reference compound]
ROS generation after 2-PF (primary microglia [1]): similarly inhibited

CCc1ccco1 [2-EF, 2-ethylfuran]
binding to Olfr1111 (Olfr111): do not bind | mode of action at Olfr110 (Olfr110): competitive inhibitor (antagonist) | 2-PF activity on Olfr110 with co-treatment (Olfr110; 2-PF fixed at 300 μM, 2-EF 1 μM to 10 mM): 2-PF activity decreases | Kd (Olfr110; 2-PF fixed at 300 μM, 2-EF 1 μM to 10 mM, read-out: Kd (competitive activity against 2-PF)): 120 µM | binding to Olfr110 (Olfr110): do not bind | amount of ROS generated by 100 MOI Sup (primary microglia [1]; 2-EF pretreated at 0, 100, 300, 500 μM): diminished as the 2-EF level increases | ROS generated with 2-PF co-treatment (primary microglia [1]): the higher the concentration of 2-EF added, the lower the concentration of the generated ROS | ROS generated with 2-PF co-treatment (primary microglia [1]; listed as 2-ethylfuran): reduced

CC(C)(C)c1ccco1 [2-t-butylfuran]
reactivity with Olfr111 (relative luciferase activity) (Olfr111): showed reactivity | reactivity with Olfr110 (relative luciferase activity) (Olfr110): showed reactivity

Nc1ncnc2c1ncn2C1CCCO1 (stereo not drawn) [SQ22536]
CREB and ERK phosphorylation (primary microglia [2]): greatly decreased | Tnf and Il6 cytokine levels after 2-PF (primary microglia [3]): great decrease

CCCCCCCc1ccco1 [2-heptylfuran]
binding to Olfr1111 (Olfr111): do not bind | binding to Olfr110 (Olfr110): do not bind

CCCc1ccco1 [2-propylfuran]
reactivity with Olfr111 (relative luciferase activity) (Olfr111): showed reactivity | reactivity with Olfr110 (relative luciferase activity) (Olfr110): showed reactivity

COc1ccc2c(c1)CC[C@@H]1[C@@H]2CC[C@]2(C)[C@@H](NCCCCCCN3C(=O)C=CC3=O)CC[C@@H]12 [U73122, reference compound]
Tnf and Il6 cytokine levels after 2-PF (primary microglia [3]): relatively less decrease | ROS generation after 2-PF (primary microglia [1]): completely inhibited

COc1cccc(-c2cc(=O)c3ccccc3o2)c1N [pd98059]
CREB and ERK phosphorylation (primary microglia [2]): greatly decreased | Tnf and Il6 cytokine levels after 2-PF (primary microglia [3]): relatively less decrease

Cc1ccoc1C [2,3-dimethylfuran]
binding to Olfr1111 (Olfr111): do not bind | binding to Olfr110 (Olfr110): do not bind

CCCCCCc1ccco1 [2-hexylfuran]
reactivity with Olfr111 (relative luciferase activity) (Olfr111): showed reactivity | binding to Olfr1111 (Olfr111): do not bind | reactivity with Olfr110 (relative luciferase activity) (Olfr110): showed reactivity | binding to Olfr110 (Olfr110): do not bind

Cc1ccco1 [2-methylfuran]
binding to Olfr1111 (Olfr111): do not bind | binding to Olfr110 (Olfr110): do not bind

CCO [ethanol]
reactivity of the other three receptors [4]: non-specific reaction

CCCCc1ccco1 [2-butylfuran]
reactivity with Olfr111 (relative luciferase activity) (Olfr111): showed reactivity | reactivity with Olfr110 (relative luciferase activity) (Olfr110): showed reactivity

O=S(=O)(NCCNC/C=C/c1ccc(Br)cc1)c1cccc2cnccc12 [H-89]
Tnf and Il6 cytokine levels after 2-PF (primary microglia [3]): great decrease
